# Laboratory results from US5324725A, “7-fused 2-(piperazinoalkyl) indole derivatives, intermediates and compositions thereof” (Kali-Chemie Pharma GmbH, priority 1991, dated 1994).
# Biological target: T1, 5-lipoxygenase (Mus musculus, UniProt P48999)
# T1 construct: A cell suspension containing peritoneal cells of male mice 8-10 weeks old was obtained; endogenous in cells; host or cells: mouse peritoneal macrophages (male mice 8-10 weeks old), zymosan-stimulated
# T1 sequence (P48999 1-674): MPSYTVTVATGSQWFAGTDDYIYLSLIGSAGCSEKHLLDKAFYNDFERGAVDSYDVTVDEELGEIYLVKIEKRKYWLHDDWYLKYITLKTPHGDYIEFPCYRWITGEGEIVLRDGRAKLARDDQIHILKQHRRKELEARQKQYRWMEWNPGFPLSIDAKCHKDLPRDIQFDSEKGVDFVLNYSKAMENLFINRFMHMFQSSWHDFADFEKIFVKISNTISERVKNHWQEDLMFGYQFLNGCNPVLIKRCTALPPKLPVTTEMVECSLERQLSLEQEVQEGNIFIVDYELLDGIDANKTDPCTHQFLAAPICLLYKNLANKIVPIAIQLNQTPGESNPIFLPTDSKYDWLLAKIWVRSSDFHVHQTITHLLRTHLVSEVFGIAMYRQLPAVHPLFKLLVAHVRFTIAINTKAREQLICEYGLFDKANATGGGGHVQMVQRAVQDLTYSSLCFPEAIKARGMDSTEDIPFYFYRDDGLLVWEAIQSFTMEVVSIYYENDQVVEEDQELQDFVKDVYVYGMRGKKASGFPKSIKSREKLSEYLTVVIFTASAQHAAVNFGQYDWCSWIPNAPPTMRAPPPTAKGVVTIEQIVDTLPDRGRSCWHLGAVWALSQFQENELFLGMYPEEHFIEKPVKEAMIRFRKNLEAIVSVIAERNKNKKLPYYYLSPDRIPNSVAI
# Test: 5-lipoxygenase inhibition: release of LTC4 from zymosan-stimulated mouse peritoneal macrophage cells
# Type: cell-based
# Conditions: 10^-5 mol/l, read-out: In vitro % inhibition effect on the release of LTC4
# From the text: 5. In vitro determination of cyclooxygenase inhibition and 5-lipoxygenase inhibition.
# After activation of the cell, arachidonic acid contained in cell membranes is metabolized in two ways. Leukotrienes, inter alia leukotriene C4, are formed under the action of the enzyme 5-lipoxygenase (5-LO), and prostanoids are formed under the action of the enzyme cyclooxygenase (CO). In in vitro systems, the metabolites are secreted from the cell.
# To investigate the cyclooxygenase-inhibiting and the 5-lipoxygenase-inhibiting properties, the inhibitory effect of the test substances on the biosynthesis of the arachidonic acid derivatives leukotriene C4 (LTC4) and 6-ketoprostaglandin F1 α (6-keto-PGF1 α) is determined in vitro on mouse peritoneal macrophage cells. This was accomplished by determining the LTC4 and 6-keto-PGF1 α contents in a culture medium of mouse peritoneal macrophage cells by zymosan stimulation as described by Scott et al. (J. Exp. Med. 152 (1980), 324-335) and by Fradin et al. (Prostaglandins, 33 (1987), 579-589).
# A cell suspension containing peritoneal cells of male mice 8-10 weeks old was obtained in a known manner. A commercially available cell culture solution (RPMI 1640 from Messrs. Gibco) was used to which heparin (I0 international units/ml) and antibiotics were added according to the recipe of Bonney et al. (Biochem. J. 176 (1978) 422-433). The cell suspension was adjusted to a cell concentration of 10^6 cells per ml and distributed uniformly on titer plates containing […] (wells). These were kept for two hours in a humidified incubator filled with air enriched with 7% CO2. Cells not adhering to the titer cell walls were then removed by washing. The remaining macrophage cells adhering to the walls were incubated for about 12 hours in a suspension medium to which 0.1% bovine serum albumin (BSA) were added. The suspension medium was then replaced by a Hanks balanced salt solution (HBSS) containing 10 mM Hepes (hydroxyethyl-piperazinoethanesulfonic acid), to which a 0.1% strength solution of the test substances in aqueous, 1% strength dimethylformamide or only the solvent had been added. After 15 minutes the arachidonic acid metabolism was stimulated by adding 10 particles of zymosan (=glycoproteinmixture, isolated from cell walls of beer yeast, Saccharomyces cerevisiae, manufactured by Sigma Chemical Co., Munich) per titer cell. After 2 hours, samples of each of the supernatant liquids were investigated for their 6-keto-PGF1 α and LTC4 contents by means of an enzyme immunoassay (EIA) carried out by the method of Pradelles et al. (Analytical Chem. 57 (1985), 1170-1173). The determination of LTC4 and the determination of 6-keto-PGF1 α were each carried out in comparison with a comparative scale on suitable dilutions of the samples (1:50 to 1:250 for the LTC4 determination and 1:250 to 1:1250 for the 6-keto-PGF1 α determination). To determine the inhibitory effect of a 10^-5 molar concentration of the compounds, the amount of reference eicosanoids was determined and the inhibitory effect was calculated from this in % inhibition compared to the measurements of the zymosan controls.
row,SMILES,inhibition at 10 µM [%]
1,"Cc1ccnc(N2CCN(CCc3c(C)n4c5c(cc(C(=O)C(C)C)cc35)CCC4)CC2)c1 [Example 27, 5,6-dihydro-2-methyl-8-(2-methyl-1-oxopropyl)-1-{2-[4-(4-methylpyridin-2-yl)piperazin-1-yl]ethyl}-4H-pyrrolo-[3,2,1-ij]quinoline]",61
2,Cc1ccnc(N2CCN(CCc3c(C)n4c5c(cc(C(=O)c6ccccc6)cc35)CCC4)CC2)c1 [Example 66],33
3,"COc1ccc(-c2c(CCN3CCN(c4cc(C)ccn4)CC3)c3cccc4c3n2CCC4)cc1 [Example 7, 2-(4-methoxy-phenyl)-1-{2-[4-(4-methylpyridin-2-yl)piperazin-1-yl]ethyl}-5,6-dihydro-4H-pyrrolo[3,2,1-ij]quinoline]",56
4,Cc1ccnc(N2CCN(CCc3c(C)n4c5c(cccc35)CCC4C3CCCCC3)CC2)c1 (stereo not shown) [Example 87],23
5,Cc1ccnc(N2CCN(CC(O)c3c(C4CCCCC4)n4c5c(cccc35)CCC4)CC2)c1 (stereo not shown) [Example 85],62
6,"CCc1c(C(O)CN2CCN(c3cc(C)ccn3)CC2)c2cccc3c2n1CCC3 (stereo not shown) [Example 14, 2-Ethyl-5,6-dihydro-1-{2-[4-(4-methylpyridin-2-yl)piperazin-1-yl]-1-hydroxyethyl}-4H-pyrrolo[3,2,1-ij]quinoline]",55
7,Cc1ccnc(N2CCN(CCc3c(C)n4c5c(c(C(O)C(C)C)ccc35)SCC4)CC2)c1 (stereo not shown) [Example 89],51
